Laboratory results as given in PubChem BioAssay (NCI).
Values joined by “and” are separate entries in the source; they are usually repeats but may differ in a detail not shown here. Identical values can stand only once.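 Test compounds were applied to cells in 96-well plates for 48 hours at 5 doses. Abbreviation: GI50, concentration required for 50% inhibition of growth. TGI marks complete inhibition of growth.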

What was measured:
Assay in all cases: DTP human tumour cell line panel, 48 h
786-0 renal = test system: 786-0 renal
HOP-92 NSCLC = test system: HOP-92 NSCLC
IGROV1 ovarian = test system: IGROV1 ovarian
K-562 leukemia = test system: K-562 leukemia
MDA-MB-435 = test system: MDA-MB-435
MOLT-4 leukemia = test system: MOLT-4 leukemia
OVCAR-3 ovarian = test system: OVCAR-3 ovarian
OVCAR-5 ovarian = test system: OVCAR-5 ovarian
PC-3 prostate = test system: PC-3 prostate
SK-MEL-5 melanoma = test system: SK-MEL-5 melanoma

| Structure (SMILES) | TGI (786-0 renal) | TGI (HOP-92 NSCLC) | TGI (IGROV1 ovarian) | TGI (K-562 leukemia) | TGI (MDA-MB-435) | TGI (MOLT-4 leukemia) | TGI (OVCAR-3 ovarian) | TGI (OVCAR-5 ovarian) | TGI (PC-3 prostate) | TGI (SK-MEL-5 melanoma) | GI50 (786-0 renal) | GI50 (HOP-92 NSCLC) | GI50 (IGROV1 ovarian) | GI50 (K-562 leukemia) | GI50 (MDA-MB-435) [nM] | GI50 (MOLT-4 leukemia) | GI50 (OVCAR-3 ovarian) | GI50 (OVCAR-5 ovarian) | GI50 (PC-3 prostate) [µM] | GI50 (SK-MEL-5 melanoma) |
| --- | --- | --- | --- | --- | --- | --- | --- | --- | --- | --- | --- | --- | --- | --- | --- | --- | --- | --- | --- | --- |
| CC(=O)CC[N+](C)(C)C | 59.3 µM | 22.7 µM | 53.4 µM | 13.5 µM | 76.7 µM | 24.7 µM | 40.7 µM | 67.6 µM | 99.5 µM | 59.6 µM |  |  |  |  |  |  |  |  |  |  |
| COc1ccc(-c2cn(C)c3c2-n2cccc2C3=O)cc1O | 30.7 µM | > 100 µM | 75.2 µM | > 100 µM | 3.91 µM | 82.2 µM | 21.4 µM | 25.2 µM | > 100 µM | 5.93 µM | 9.86 µM | 6.8 µM | 26.9 µM | 4.3 µM | 893 | 7.21 µM | 3390 nM | 5.74 µM | 6.09 | 1400 nM |
| COc1ccc2nc3cc(Cl)ccc3c(Nc3ccccc3-c3ccccc3Nc3c4ccc(Cl)cc4nc4ccc(OC)cc34)c2c1 | > 59 µM | > 82.5 µM | > 71.1 µM | 59.3 µM | > 100 µM | > 69.4 µM | > 78.4 µM | > 85.9 µM | 63 µM | 30.7 µM |  |  |  |  |  |  |  |  |  |  |
| CCc1nc(N)nc(N)c1C#CC(C)c1ccc(-c2ccncc2)cc1Cl (configuration not stated) | 4.06 µM and 6.63 µM | 1.56 µM and 6.36 µM | 6.71 µM and 19.1 µM | 28.5 µM and 15.2 µM | 4.85 µM and 14.3 µM | 4.62 µM and 8.45 µM | 2.06 µM and 13.3 µM | 6.17 µM and 18.6 µM | 4.85 µM and 12.5 µM | 0.781 µM and 1.98 µM | 0.00501 µM and 0.0128 µM | 0.109 µM and 0.547 µM | < 0.005 µM and 0.0323 µM | < 0.005 µM |  | 0.0276 µM and 0.0493 µM | 42.1 nM and 98 nM | 0.115 µM and 0.133 µM | < 0.005 | 7.53 nM and 46.1 nM |
| O=[N+]([O-])c1ccccc1/C=N\NC(=S)N/N=C/c1ccccc1[N+](=O)[O-] | > 100 µM | > 100 µM | > 100 µM | > 100 µM | 3.62 µM | > 100 µM | 4.72 µM | > 100 µM | > 100 µM | > 100 µM | 38 µM | 26.2 µM | 3.67 µM | 3.43 µM | 426 | 6.47 µM | 1950 nM | 51 µM | 10 | 4210 nM |
| CN(C)Cc1ccc(NC(=O)c2cncc(C#Cc3cnc(N)c4ncccc34)c2)cc1C(F)(F)F | 3.26 µM | 4.66 µM | 2.97 µM | 1.02 µM | 1.88 µM | 2.75 µM | 3.8 µM | 2.6 µM | 3.04 µM | 2.41 µM | 1.77 µM | 1.04 µM | 1.47 µM |  | 376 | 0.701 µM | 1980 nM | 1.27 µM | 1.64 | 1170 nM |
| O=C(O)c1cccc([As]=[As]c2cccc(C(=O)O)c2)c1 (configuration not stated) | 71.1 µM | 37.4 µM | > 100 µM | > 100 µM | > 100 µM | 95.1 µM | > 100 µM | 53.8 µM | 36.7 µM | 96.1 µM |  |  |  |  |  |  |  |  |  |  |
| NC(CSC(c1ccccc1)(c1ccccc1)c1ccccc1)C(=O)O (configuration not stated) | 70.3 µM and > 100 µM |  | 84.8 µM and > 100 µM | 31.9 µM and > 100 µM | 0.648 µM and 0.791 µM | 83.8 µM and 15.9 µM and > 100 µM | 9.48 µM and 27.9 µM and 13 µM | 89.4 µM and > 100 µM | 12.1 µM and > 100 µM | 51.1 µM and 42.5 µM | 1.41 µM and 4.24 µM | 2.17 µM and 10.1 µM | 3.98 µM and 4.69 µM | 1.76 µM and 0.775 µM | 275 | 7.54 µM and 5.01 µM | 2460 nM and 2180 nM | 4.28 µM | 2.43 | 601 nM and 410 nM |
| CC(C)(C)OC(=O)NCCCCCCCCCn1c2c(c3ccccc3c1=O)C(=O)c1ccccc1-2 | 76.9 µM | 41.6 µM | > 100 µM | > 100 µM | > 100 µM | > 100 µM | > 100 µM | > 100 µM | > 100 µM | > 100 µM | 17.5 µM | 14.6 µM | 36.1 µM | > 100 µM | > 100000 | > 100 µM | 29200 nM | > 100 µM | > 100 | > 100000 nM |
| O=C(Nc1cc(Cl)c(I)c(Cl)c1)C(F)(F)F | 74.4 µM | 46.9 µM | > 100 µM | 81.8 µM | > 100 µM | 82.7 µM | 81.2 µM | 83 µM | 83.8 µM | 36.1 µM |  |  |  |  |  |  |  |  |  |  |
| COc1ccc(-c2nc(NC(=O)CS(=O)(=O)c3ccc(F)cc3)sc2C)cc1 | 61.3 µM | 48 µM | > 100 µM | > 100 µM | 12.1 µM | > 100 µM | 39.9 µM | > 100 µM | 94.7 µM | 25.9 µM | 23 µM | 14.2 µM | 28.2 µM | 3.94 µM | 3290 | 14.5 µM | 15700 nM | 36 µM | 21.1 | 12800 nM |
| O=C(CSSCC(=O)c1ccc(Cl)cc1)c1ccc(Cl)cc1 | 14.5 µM | 19.4 µM | 26.6 µM | > 100 µM | 11 µM | > 100 µM | 26.1 µM | 21.5 µM | 30.5 µM | 10.5 µM | 4.41 µM | 5.37 µM | 5.83 µM | 3.28 µM | 2570 | 3.28 µM | 5390 nM | 5.83 µM | 6.12 | 3320 nM |
| CN[C@@H](C)C(=O)N[C@H](C(=O)N1CCC[C@H]1c1nc(C(=O)c2ccc(F)cc2)cs1)C1CCCCC1 | 34 µM | 8.98 µM | > 100 µM | 38.7 µM | 40.6 µM | 57 µM | > 100 µM | > 78.9 µM | > 73.6 µM | 28.7 µM | 17.1 µM | 2.8 µM | 33.9 µM | 17 µM | 16300 | 20 µM | 25500 nM | 27 µM | 24.1 | 13600 nM |
| COC(=O)CNC(=O)C(=O)c1c(O)c(O)c(C(C)C)c2cc(C)c(-c3c(C)cc4c(C(C)C)c(O)c(O)c(C(=O)C(=O)NCC(=O)OC)c4c3O)c(O)c12 | 8.77 µM | 3.81 µM | 8.94 µM | > 50 µM | 9.3 µM | 16 µM | 6.34 µM | 9.13 µM | 7.26 µM | 11.3 µM | 2.35 µM | 1.38 µM | 1.92 µM | 1.88 µM | 2460 | 1.36 µM | 1610 nM | 1.56 µM | 1.84 | 4290 nM |
